According to patent publication US9931347B2, “Pharmaceutical compound” (IOmet Pharma Ltd., priority 2013, dated 2018):

Legend:
[1] = target: T1, TDO (A172 human glioblastoma cells) (Homo sapiens, UniProt P48775); experiment: A172 Kynurenine cell based assay; settings: 500 μM L-tryptophan, 48 hours, kynurenine by Erhlich's reagent
T1 construct: This assay utilised cancer cells which expressed either TDO or IDO; endogenous in cells; host or cells: A172 human glioblastoma cells
How it was run: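 A172 glioblastoma cells (30,000/well) cultured at 37° C. in phenol red-free RPMI with 10% FCS, 2 mM L-glutamine and 500 μM L-tryptophan, with or without test compound. After 48 hours, kynurenine in the supernatant was read with Erhlich's reagent (5 min) as absorbance at 490 nm.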

Recombinant human IDO = Recombinant human IDO (Homo sapiens, UniProt P14902); experiment: hIDO biochemical coupled assay; settings: 45 μM L-tryptophan, coupled with kynurenine formamidase
Procedure: (§1) Exemplary compounds of the invention were prepared, and tested to determine their effect as TDO and/or IDO inhibitors. Two different assays were employed: 1. a cell-based assay for detecting the effect of test compounds on kynurenine production in two different cancer cell types. This assay utilised cancer cells which expressed either TDO or IDO and as such was used as a means of testing compound activity at these two enzymes in a cell-based context. 2. a TDO and IDO biochemical coupled assay which utilised recombinantly produced and purified TDO and IDO enzymes in combination with the enzyme formamidase. This coupled enzyme system allowed conversion of N-formylkynurenine produced by TDO or IDO activity to kynurenine which was then quantified by fluorescence following addition of Erhlich's Reagent The protocols for these are set out below.
Recombinant human IDO or TDO was incubated in 50 mM KPO4 (pH 7.0), 0.5 mM EGTA, 0.5 mM EDTA, 0.05% Triton™ X100, 20 mM ascorbate, 10 μM methylene blue, 500 U/ml catalase, 50 μg/ml KynB (kynurenine formamidase).

[2] = target: T2, IDO (SKOV3 human ovarian adenocarcinoma cells, IFN-γ induced) (Homo sapiens, UniProt P14902); experiment: SKOV3 Kynurenine cell based assay; settings: IDO induced by 500 ng/ml IFN-γ, 500 μM L-tryptophan, 48 hours
T2 construct: IDO expression was induced in the SKOV3 cells by the addition of 500 ng/ml IFN-γ; endogenous in cells; host or cells: SKOV3 human ovarian adenocarcinoma cells, induced with IFN-γ
How it was run: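 IFN-γ (500 ng/ml) induced IDO in SKOV3 cells, seeded at 40,000/well in phenol red-free RPMI with 10% FCS, 2 mM L-glutamine and 500 μM L-tryptophan. Cells were incubated with or without compound at 37° C for 48 h. Supernatant kynurenine was detected with Ehrlich's reagent.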

Recombinant human TDO = Recombinant human TDO (Homo sapiens, UniProt P48775); experiment: hTDO biochemical coupled assay; settings: 330 μM L-tryptophan, coupled with kynurenine formamidase
Procedure: as §1
Recombinant human IDO or TDO was incubated in 50 mM KPO4 (pH 7.0), 0.5 mM EGTA, 0.5 mM EDTA, 0.05% Triton™ X100, 20 mM ascorbate, 10 μM methylene blue, 500 U/ml catalase, 50 μg/ml KynB (kynurenine formamidase). TDO assays were carried out in the presence of 330 μM L-tryptophan, while IDO assays had the addition of 45 μM L-tryptophan. After incubation for 17 minutes at room temperature the reactions were stopped by the addition of Erhlich's reagent and incubated at room temperature for 5 minutes before the fluorescence was read (Ex475, Em530).

T2 sequence (P14902 whole entry): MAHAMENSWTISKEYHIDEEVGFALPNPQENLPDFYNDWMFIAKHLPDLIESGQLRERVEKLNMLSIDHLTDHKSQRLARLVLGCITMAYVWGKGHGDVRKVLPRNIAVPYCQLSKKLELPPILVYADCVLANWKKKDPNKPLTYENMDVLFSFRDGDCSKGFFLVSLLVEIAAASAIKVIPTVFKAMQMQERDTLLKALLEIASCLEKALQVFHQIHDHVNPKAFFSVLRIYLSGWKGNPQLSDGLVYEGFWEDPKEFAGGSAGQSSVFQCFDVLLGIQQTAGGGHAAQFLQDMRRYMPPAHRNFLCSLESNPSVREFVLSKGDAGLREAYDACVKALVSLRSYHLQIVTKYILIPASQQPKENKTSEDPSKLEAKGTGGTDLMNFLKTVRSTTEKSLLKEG
Chain of Recombinant human IDO (P14902 whole entry): as above
T1 sequence (P48775 whole entry): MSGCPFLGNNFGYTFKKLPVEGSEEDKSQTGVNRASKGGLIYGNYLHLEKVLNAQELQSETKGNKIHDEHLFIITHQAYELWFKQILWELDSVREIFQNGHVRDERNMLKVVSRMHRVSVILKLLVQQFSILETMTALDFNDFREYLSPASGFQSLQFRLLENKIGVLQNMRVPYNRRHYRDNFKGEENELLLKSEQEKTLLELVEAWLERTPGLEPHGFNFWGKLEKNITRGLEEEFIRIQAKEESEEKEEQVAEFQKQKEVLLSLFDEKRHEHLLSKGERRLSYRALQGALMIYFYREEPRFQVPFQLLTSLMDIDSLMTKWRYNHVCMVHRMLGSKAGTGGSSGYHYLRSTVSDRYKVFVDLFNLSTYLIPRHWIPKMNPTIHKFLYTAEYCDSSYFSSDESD
Chain of Recombinant human TDO (P48775 whole entry): as above

A172 Kynurenine cell based assay pIC50 [1] | hIDO biocehmical assay pIC50 (Recombinant human IDO) | SKOV3 Kynurenine cell based assay pIC50 [2] | hTDO biochemical assay pIC50 (Recombinant human TDO) | Structure (SMILES)
+ (+ = pIC50 4.00-4.99) | +− (+− = pIC50 <4.00) | + (+ = pIC50 4.00-4.99) | +− (+− = pIC50 <4.00) | O=S(=O)(c1ccccc1Br)N1CCC(c2c[nH]c3ccccc23)CC1 [Compound 21]
+++ (+++ = pIC50 ≥6.00) | +− (+− = pIC50 <4.00) | +− (+− = pIC50 <4.00) | + (+ = pIC50 4.00-4.99) | CS(=O)(=O)N1CCC(c2c[nH]c3cc(F)ccc23)CC1 [Compound 22]
+− (+− = pIC50 <4.00) | +− (+− = pIC50 <4.00) | + (+ = pIC50 4.00-4.99) | +− (+− = pIC50 <4.00) | Cc1[nH]c2ccccc2c1C1CCN(S(=O)(=O)c2ccc([N+](=O)[O-])cc2)CC1 [Compound 25]
+− (+− = pIC50 <4.00) | +− (+− = pIC50 <4.00) | + (+ = pIC50 4.00-4.99) | +− (+− = pIC50 <4.00) | O=S(=O)(c1cc(C(F)(F)F)ccc1C(F)(F)F)N1CCC(c2c[nH]c3ccc(F)cc23)CC1 [Compound 26]
+ (+ = pIC50 4.00-4.99) | +− (+− = pIC50 <4.00) | + (+ = pIC50 4.00-4.99) | +− (+− = pIC50 <4.00) | COc1ccc(Br)cc1S(=O)(=O)N1CCC(c2c[nH]c3ccc(F)cc23)CC1 [Compound 27]
+− (+− = pIC50 <4.00) | +− (+− = pIC50 <4.00) | + (+ = pIC50 4.00-4.99) | +− (+− = pIC50 <4.00) | Cc1cccc2c(C3CCN(C(=O)c4cc(Cl)cnc4Cl)CC3)c[nH]c12 [Compound 28]
+− (+− = pIC50 <4.00) | +− (+− = pIC50 <4.00) | + (+ = pIC50 4.00-4.99) | +− (+− = pIC50 <4.00) | CCc1cc(Br)ccc1S(=O)(=O)N1CCC(c2c[nH]c3ccc(OC)cc23)CC1 [Compound 29]
+− (+− = pIC50 <4.00) | +− (+− = pIC50 <4.00) | + (+ = pIC50 4.00-4.99) | +− (+− = pIC50 <4.00) | COc1ccc2[nH]cc(C3CCN(S(=O)(=O)c4ccc(Br)cc4OC(F)(F)F)CC3)c2c1 [Compound 30]
+− (+− = pIC50 <4.00) | +− (+− = pIC50 <4.00) | + (+ = pIC50 4.00-4.99) | +− (+− = pIC50 <4.00) | Cc1ccc2[nH]cc(C3CCN(S(=O)(=O)c4cc(C)c(Cl)cc4Cl)CC3)c2c1 [Compound 31]
+− (+− = pIC50 <4.00) | +− (+− = pIC50 <4.00) | + (+ = pIC50 4.00-4.99) | +− (+− = pIC50 <4.00) | Cc1ccc2[nH]cc(C3CCN(S(=O)(=O)c4cccc(Cl)c4C)CC3)c2c1 [Compound 32]
+ (+ = pIC50 4.00-4.99) | +− (+− = pIC50 <4.00) | + (+ = pIC50 4.00-4.99) | +− (+− = pIC50 <4.00) | Cc1ccc2[nH]cc(C3CCN(S(=O)(=O)c4ccc(Br)cc4OC(F)(F)F)CC3)c2c1 [Compound 34]
+− (+− = pIC50 <4.00) | +− (+− = pIC50 <4.00) | + (+ = pIC50 4.00-4.99) | +− (+− = pIC50 <4.00) | Cc1ccc2[nH]cc(C3CCN(S(=O)(=O)c4cc(C(F)(F)F)ccc4C(F)(F)F)CC3)c2c1 [Compound 35]
+ (+ = pIC50 4.00-4.99) | +− (+− = pIC50 <4.00) | ++ (++ = pIC50 5.00-5.99) | +− (+− = pIC50 <4.00) | Cc1ccc2[nH]cc(C3CCN(S(=O)(=O)c4ccccc4OC(F)(F)F)CC3)c2c1 [Compound 36]
+− (+− = pIC50 <4.00) | +− (+− = pIC50 <4.00) | + (+ = pIC50 4.00-4.99) | +− (+− = pIC50 <4.00) | Cc1cccc2c(C3CCN(S(=O)(=O)c4ccc5c(c4)CN(C(=O)C(F)(F)F)CC5)CC3)c[nH]c12 [Compound 37]

Second part, the compound before the results:

Structure (SMILES) | A172 Kynurenine cell based assay pIC50 [1] | hIDO biocehmical assay pIC50 (Recombinant human IDO) | SKOV3 Kynurenine cell based assay pIC50 [2] | hTDO biochemical assay pIC50 (Recombinant human TDO)
Cc1cc(C(=O)N2CCC(c3c(C)[nH]c4ccccc34)CC2)no1 [Compound 8] | +− (+− = pIC50 <4.00) | +− (+− = pIC50 <4.00) | + (+ = pIC50 4.00-4.99) | +− (+− = pIC50 <4.00)
Cc1ccc(S(=O)(=O)N2CCC(c3c[nH]c4ccccc34)CC2)cc1 [Compound 9] | + (+ = pIC50 4.00-4.99) | +− (+− = pIC50 <4.00) | + (+ = pIC50 4.00-4.99) | +− (+− = pIC50 <4.00)
FC(F)(F)CN1CCC(c2c[nH]c3ccccc23)CC1 [Compound 10] | + (+ = pIC50 4.00-4.99) | +− (+− = pIC50 <4.00) | +− (+− = pIC50 <4.00) | +− (+− = pIC50 <4.00)
O=C(c1cccs1)N1CCC(c2c[nH]c3ccccc23)CC1 [Compound 11] | + (+ = pIC50 4.00-4.99) | +− (+− = pIC50 <4.00) | + (+ = pIC50 4.00-4.99) | +− (+− = pIC50 <4.00)
O=S(=O)(c1cccs1)N1CC=C(c2c[nH]c3ncccc23)CC1 [Compound 13] | +− (+− = pIC50 <4.00) | +− (+− = pIC50 <4.00) | ++ (++ = pIC50 5.00-5.99) | +− (+− = pIC50 <4.00)
Cc1ccc(S(=O)(=O)N2CCC(c3c[nH]c4ccccc34)CC2)c(C)c1 [Compound 14] | + (+ = pIC50 4.00-4.99) | +− (+− = pIC50 <4.00) | +− (+− = pIC50 <4.00) | +− (+− = pIC50 <4.00)
COc1ccc2[nH]cc(C3CCN(C(=O)C(C)C)CC3)c2c1 [Compound 15] | +− (+− = pIC50 <4.00) | +− (+− = pIC50 <4.00) | + (+ = pIC50 4.00-4.99) | +− (+− = pIC50 <4.00)
NC(=O)N1CCC(c2c[nH]c3ccccc23)CC1 [Compound 16] | + (+ = pIC50 4.00-4.99) | +− (+− = pIC50 <4.00) | +− (+− = pIC50 <4.00) | +− (+− = pIC50 <4.00)
Cc1[nH]c2ccccc2c1C1CCN(C(=O)C2CCCO2)CC1 (stereo not shown) [Compound 17] | +− (+− = pIC50 <4.00) | +− (+− = pIC50 <4.00) | + (+ = pIC50 4.00-4.99) | +− (+− = pIC50 <4.00)
CCCCS(=O)(=O)N1CC=C(c2c[nH]c3cc(F)ccc23)CC1 [Compound 18] | ++ (++ = pIC50 5.00-5.99) | +− (+− = pIC50 <4.00) | + (+ = pIC50 4.00-4.99) | + (+ = pIC50 4.00-4.99)
O=C(Cc1cccs1)N1CCC(c2c[nH]c3ccccc23)CC1 [Compound 19] | +− (+− = pIC50 <4.00) | +− (+− = pIC50 <4.00) | + (+ = pIC50 4.00-4.99) | +− (+− = pIC50 <4.00)
